# Assay results: ChEMBL document CHEMBL1140924, “Biomedical application of orexin/hypocretin receptor ligands in neuroscience” (J Med Chem, 2009)
# Experiments:
# [1] = molecular target: T1, Orexin/Hypocretin receptor type 1 (Homo sapiens) (UniProt O43613); assay: Antagonist activity at human OX1 receptor expressed in CHO cells assessed as inhibition of receptor-mediated calcium response by FLIPR; format: functional, cell-based
# T1 sequence (whole entry): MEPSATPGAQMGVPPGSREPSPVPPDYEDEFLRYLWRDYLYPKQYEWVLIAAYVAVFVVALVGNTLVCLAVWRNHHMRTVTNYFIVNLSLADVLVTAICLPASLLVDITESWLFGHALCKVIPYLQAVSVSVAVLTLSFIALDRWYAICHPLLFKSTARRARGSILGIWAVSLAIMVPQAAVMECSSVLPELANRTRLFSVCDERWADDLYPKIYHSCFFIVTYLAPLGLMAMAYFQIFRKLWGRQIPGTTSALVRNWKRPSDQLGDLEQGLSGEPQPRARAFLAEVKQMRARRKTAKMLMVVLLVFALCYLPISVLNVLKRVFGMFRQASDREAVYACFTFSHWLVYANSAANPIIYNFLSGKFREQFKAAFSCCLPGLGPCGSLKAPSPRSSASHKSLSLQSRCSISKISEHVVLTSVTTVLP
# Orexin receptor type 2 [2] = molecular target: T2, Orexin receptor type 2 (Homo sapiens, UniProt O43614); assay: Inhibition of OX2 receptor
# T2 sequence (O43614 whole entry): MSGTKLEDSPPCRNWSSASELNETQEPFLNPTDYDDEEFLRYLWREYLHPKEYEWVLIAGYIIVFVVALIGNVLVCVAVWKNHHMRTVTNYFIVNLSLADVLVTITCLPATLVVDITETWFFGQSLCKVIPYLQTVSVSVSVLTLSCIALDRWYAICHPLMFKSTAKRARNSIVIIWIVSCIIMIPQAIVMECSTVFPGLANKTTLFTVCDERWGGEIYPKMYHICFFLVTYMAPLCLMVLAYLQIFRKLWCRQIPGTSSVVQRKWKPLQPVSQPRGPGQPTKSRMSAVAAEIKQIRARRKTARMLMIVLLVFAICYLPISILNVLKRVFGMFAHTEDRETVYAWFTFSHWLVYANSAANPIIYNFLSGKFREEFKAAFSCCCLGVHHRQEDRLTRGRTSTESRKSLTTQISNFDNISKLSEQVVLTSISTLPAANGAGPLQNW
# [3] = molecular target: T3, Orexin/Hypocretin receptor type 1 (Homo sapiens, UniProt O43613); assay: Inhibition of OX1 receptor
# T3 sequence (O43613 whole entry): T1 sequence (whole entry)
# Orexin receptor type 2 [4] = molecular target: T2, Orexin receptor type 2; assay: Binding affinity to OX2 receptor
# [5] = Selectivity of Ki for OX1 receptor to Ki for OX2 receptor
# [6] = molecular target: T3, Orexin/Hypocretin receptor type 1; assay: Binding affinity to OX1 receptor
SMILES,pKb [1],IC50 (Orexin receptor type 2 [2]) [nM],IC50 [3] [nM],also measured
Cn1ccc2cc(NC(=O)Nc3cccc4ccccc34)ccc21,< 6.3,–,–,–
COc1cc2c(cc1OC)C(Cc1ccc3ccccc3c1)N(C(C(=O)NC1CC1)c1ccccc1)CC2 (stereo not drawn),–,80,37,–
O=C(Nc1ccc2c(ccn2Cc2ccccc2)c1)Nc1ccnc2ccccc12,< 6.1,–,–,–
COc1cc2c(cc1OC)C(Cc1ccc(C)c(C)c1)N(CC(=O)NC1CCc3ccccc31)CC2 (stereo not drawn),–,4200,44,–
COc1cc2c(cc1OC)C(Cc1ccc(F)c(F)c1)N(CC(=O)NCc1ccccc1)CC2 (stereo not drawn),–,> 10000,> 10000,–
COc1ccc(C[C@H]2c3cc(OC)c(OC)cc3CCN2CC(=O)NCCc2ccccc2)cc1OC,–,10000,3140,–
CN(C)c1ccc(NC(=O)Nc2ccnc3ccccc23)cc1Cl,7.4,–,–,–
CN1CCc2cc(NC(=O)Nc3ccnc4ccccc34)ccc21,7.6,–,–,–
COc1ccc(CC2c3cc(OC)c(OC)cc3CCN2CC(=O)NC2CCc3ccccc32)cc1 (stereo not drawn),–,> 10000,1180,–
COc1cc2c(cc1OC)C(Cc1ccc(Cl)c(Cl)c1)N(CC(=O)NCc1ccccc1)CC2 (stereo not drawn),–,281,118,–
COCCNC(=O)C(c1ccccc1)N1CCc2cc(OC)c(OC)cc2C1Cc1ccc2ccccc2c1 (stereo not drawn),–,109,8,–
COc1cc2c(cc1OC)C(Cc1ccc(Oc3ncccn3)c(OC)c1)N(CC(=O)NCc1ccccc1)CC2 (stereo not drawn),–,240,52,–
Cc1nc2ccc(NC(=O)Nc3ccnc4ccccc34)cc2o1,7.7,–,–,–
CC1(C)OC[C@H](NC(=O)Nc2c(Cl)cccc2Cl)[C@H](c2ccccc2)O1,–,–,–,Ki (Orexin receptor type 2 [4]): > 10000 nM; Ratio [5]: 2; Ki [6]: > 5010 nM
CCN(CC)c1ccc(NC(=O)Nc2ccnc3ccccc23)cc1,7.4,–,–,–
O=C(Nc1ccccc1)Nc1ccnc2ccccc12,< 6.1,–,–,–
Cc1ccc(NC(=O)N[C@H]2COC(C)(C)O[C@H]2c2ccccc2)c(C)c1,–,–,–,Ki (Orexin receptor type 2 [4]): > 10000 nM; Ratio [5]: 70; Ki [6]: 126 nM
COc1cc2c(cc1OC)C(Cc1ccccc1)N(CC(=O)NC1CCc3ccccc31)CC2 (stereo not drawn),–,> 10000,4460,–

SMILES,pKb [1],IC50 (Orexin receptor type 2 [2]) [nM],IC50 [3] [nM],also measured
CSc1ccc(NC(=O)Nc2ccnc3ccccc23)cc1,7.9,–,–,–
CCCCNC(=O)C(c1ccccc1)N1CCc2cc(OC)c(OC)cc2C1Cc1ccc(OC)c(OC)c1 (stereo not drawn),–,1810,75,–
CCCCNC(=O)C(c1ccccc1)N1CCc2cc(OC)c(OC)cc2C1CCc1ccc(F)c(F)c1 (stereo not drawn),–,19,1910,–
Cc1ccc(Cl)c(NC(=O)N[C@H]2COC(C)(C)O[C@H]2c2ccccc2)c1,–,–,–,Ki (Orexin receptor type 2 [4]): > 5010 nM; Ratio [5]: 80; Ki [6]: 63.1 nM
COc1cc2c(cc1OC)C(Cc1ccc3c(c1)OCO3)N(CC(=O)NCc1ccccc1)CC2 (stereo not drawn),–,> 10000,9480,–
COc1cc2c(cc1OC)C(CCc1ccc(F)c(F)c1)N(C(C(=O)NCC1CC1)c1ccccc1)CC2 (stereo not drawn),–,14,552,–
COc1ccc(CC2c3cc(OC)c(OC)cc3CCN2CC(=O)NC2Cc3ccccc3C2)cc1OC (racemic),–,1100,129,–
Cc1nc2ccc(NC(=O)Nc3ccnc4cccnc34)cc2o1,7.4,–,–,–
COc1ccc(CC2c3cc(OC)c(OC)cc3CCN2CC(=O)NCc2cccnc2)cc1OC (racemic),–,10000,268,–
CC1(C)OC[C@H](NC(=O)Nc2ccc(Br)cc2)[C@H](c2ccccc2)O1,–,–,–,Ki (Orexin receptor type 2 [4]): > 10000 nM; Ratio [5]: 40; Ki [6]: 251 nM
COc1ccc(CC2c3cc(OC)c(OC)cc3CCN2CC(=O)N2CCc3ccccc3C2)cc1OC (racemic),–,10000,10000,–
COc1cc2c(cc1OC)C(Cc1ccccc1)N(CC(=O)NCc1ccccc1)CC2 (stereo not drawn),–,6100,5730,–
COc1ccc(CC2c3cc(OC)c(OC)cc3CCN2CC(=O)NCc2ccccc2)cc1 (stereo not drawn),–,> 10000,8420,–
O=C(Nc1ccc2[nH]ccc2c1)Nc1ccnc2ccccc12,6.2,–,–,–
COc1ccc(CC2c3cc(OC)c(OC)cc3CCN2CC(=O)N(C)Cc2ccccc2)cc1OC (racemic),–,10000,2010,–
COc1ccc2c(c1)C(NC(=O)CN1CCc3cc(OC)c(OC)cc3C1Cc1ccc(OC)c(OC)c1)CC2 (racemic),–,101,19,–
O=C(Nc1ccc2ocnc2c1)Nc1ccnc2ccccc12,< 6.2,–,–,–
